Columns and labels:
Assay type in all cases: cell-based
[1] = molecular target: T1, mouse TGR5 receptor (Mus musculus, UniProt Q80SS6); assay: Mouse TGR5 HTRF cAMP production assay (HEK293-EBNA cells, Cisbio cAMP HiRange kit); conditions: HEK293-EBNA cells overexpressing mouse TGR5, HTRF cAMP assay
T1 construct: host or cells: HEK293-EBNA (293 c18, ATCC CRL10852)
T1 sequence (Q80SS6 1-329): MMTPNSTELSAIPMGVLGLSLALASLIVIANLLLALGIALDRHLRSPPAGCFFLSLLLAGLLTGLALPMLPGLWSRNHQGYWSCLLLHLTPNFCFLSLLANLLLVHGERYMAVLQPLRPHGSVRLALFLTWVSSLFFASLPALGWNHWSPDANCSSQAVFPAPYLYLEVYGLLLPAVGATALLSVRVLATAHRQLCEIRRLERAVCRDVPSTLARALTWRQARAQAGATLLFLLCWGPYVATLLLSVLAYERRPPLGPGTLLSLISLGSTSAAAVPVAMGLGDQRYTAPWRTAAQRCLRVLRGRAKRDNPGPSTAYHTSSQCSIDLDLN
Method in brief: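 HEK293-EBNA cells stably expressing mouse TGR5 (episomal vector) were suspended in serum-free DMEM with 500 μM IBMX and exposed to 12-point half-log compound dilutions for 1 h at room temperature. cAMP was detected by HTRF (d2-cAMP/anti-cAMP cryptate, 1 h, room temperature), giving EC50 from duplicates.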

[2] = tested on: Mouse STC-1 cells; assay: STC-1 GLP-1 assay (GLP-1 secretion); conditions: Mouse STC-1 cells, GLP-1 secretion, 2 h; read-out: Mouse STC-1 HTRF GLP-1 Activity (EC50)
Method in brief: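 Mouse STC-1 cells were plated two days ahead in DMEM with 10% charcoal-dextran stripped FBS, then exposed to compound in HBSS with protease inhibitors, DPP-IV inhibitor and 0.1% fatty acid free BSA for 2 h at 37° C. Active GLP-1 in supernatant was quantified by HTRF; EC50 derived from 12-point half-log curves.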

[3] = molecular target: T1, mouse TGR5 receptor; assay: Mouse TGR5 luminescent cAMP production assay (HEK293-EBNA cells, DiscoveRx cAMP XS+ kit); conditions: HEK293-EBNA cells overexpressing mouse TGR5, luminescent cAMP assay; read-out: Mouse TGR5 Lum. cAMP Activity (EC50)
Method in brief: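 HEK293-EBNA cells stably expressing mouse TGR5, resuspended in serum-free DMEM with 500 μM IBMX, were premixed 20 min with cAMP antibody, then exposed to half-log compound dilutions for 1 h at room temperature. cAMP was read by luminescent enzyme-fragment complementation (cAMP XS+) after overnight incubation; EC50 derived.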

SMILES	EC50 [1] [nM]	EC50 [2] [nM]	EC50 [3] [nM]
N#Cc1ccc(CCNC(=O)[C@@H]2CCCN2c2cc(N3CCC(CCCC(=O)N[C@@H](CCCNC(=N)N)C(=O)O)CC3)nc(C(F)(F)F)n2)cc1 [Compound 72, (S)-2-(4-(1-(6-((S)-2-((4-cyanophenethyl)carbamoyl)pyrrolidin-1-yl)-2-(trifluoromethyl)pyrimidin-4-yl)piperidin-4-yl)butanamido)-5-guanidinopentanoic acid]	< 100	100 to 999	–
O=C(CCCC1CCN(c2cc(N3CCC[C@H]3C(=O)NCCc3ccc(C(F)(F)F)cc3)nc(C(F)(F)F)n2)CC1)NCCNc1ncnc2c1ncn2[C@@H]1O[C@H](CO)C(O)C1O (stereo partly drawn) [Compound 96, (2S)-1-(6-(4-(4-((2-((9-((2R,5R)-3,4-dihydroxy-5-(hydroxymethyl)-tetrahydrofuran-2-yl)-9H-purin-6-yl)amino)ethyl)amino)-4-oxobutyl)piperidin-1-yl)-2-(trifluoromethyl)-pyrimidin-4-yl)-N-(4-(trifluoromethyl)-phenethyl)-pyrrolidine-2-carboxamide]	< 100	< 100	–
CS(=O)(=O)NCCNC(=O)CCCC1CCN(c2cc(N3CCC[C@H]3C(=O)NCCc3ccc(C#N)cc3)nc(C(F)(F)F)n2)CC1 [Compound 93]	< 100	< 100	–
N#Cc1ccc(CCNC(=O)[C@@H]2CCCN2c2cc(N3CCC(CO)CC3)nc(C(F)(F)F)n2)cc1 [Compound 1, (S)—N-(4-cyanophenethyl)-1-(6-(4-(hydroxymethyl)piperidin-1-yl)-2-(trifluoromethyl)pyrimidin-4-yl)pyrrolidine-2-carboxamide]	–	100 to 999	< 100
N#Cc1ccc(CCNC(=O)[C@@H]2CCCN2c2cc(N3CCC(CCCC(=O)N[C@@H](CCC(=O)O)C(=O)O)CC3)nc(C(F)(F)F)n2)cc1 [Compound 76, (S)-2-(4-(1-(6-((S)-2-((4-cyanophenethyl)carbamoyl)pyrrolidin-1-yl)-2-(trifluoromethyl)pyrimidin-4-yl)piperidin-4-yl)butanamido)-pentanedioic acid]	< 100	100 to 999	–
N#Cc1ccc(CCNC(=O)[C@@H]2CCCN2c2cc(N3CCC(CCCC(=O)NCCNc4cc(C(=O)O)ncn4)CC3)nc(C(F)(F)F)n2)cc1 [Compound 101, (S)-6-((2-(4-(1-(6-(2-((4-cyanophenethyl)carbamoyl)pyrrolidin-1-yl)-2-(trifluoromethyl)pyrimidin-4-yl)piperidin-4-yl)butanamido)ethyl)amino)-pyrimidine-4-carboxylic acid]	< 100	< 100	–
O=C(NCCC1CCN(c2cc(N3CCC[C@H]3C(=O)NCCc3ccc(C(F)(F)F)cc3)nc(C(F)(F)F)n2)CC1)NCCS(=O)(=O)O [Compound 86, (S)-2-(3-(2-(1-(2-(trifluoromethyl)-6-(2-((4-(trifluoromethyl)phenethyl)-carbamoyl)pyrrolidin-1-yl)pyrimidin-4-yl)piperidin-4-yl)ethyl)ureido)-ethanesulfonic acid]	< 100	< 100	–
CS(=O)(=O)NCCNC(=O)CCCC1CCN(c2cc(N3CCC[C@H]3C(=O)NCCc3ccc(C(F)(F)F)cc3)nc(C(F)(F)F)n2)CC1 [Compound 91, (S)-1-(6-(4-(4-((2-(methylsulfonamido)ethyl)amino)-4-oxobutyl)piperidin-1-yl)-2-(trifluoromethyl)pyrimidin-4-yl)-N-(4-(trifluoromethyl)phenethyl)pyrrolidine-2-carboxamide]	< 100	< 100	–

Further lines, results first:

EC50 [1] [nM]	EC50 [2] [nM]	EC50 [3] [nM]	SMILES
< 100	100 to 999	–	N#Cc1ccc(CCNC(=O)[C@@H]2CCCN2c2cc(N3CCC(CCCC(=O)NCC(N)=O)CC3)nc(C(F)(F)F)n2)cc1 [Compound 68, (S)-1-(6-(4-(4-((2-amino-2-oxoethyl)amino)-4-oxobutyl)piperidin-1-yl)-2-(trifluoromethyl)pyrimidin-4-yl)-N-(4-cyanophenethyl)pyrrolidine-2-carboxamide]
< 100	100 to 999	–	N#Cc1ccc(CCNC(=O)[C@@H]2CCCN2c2cc(N3CCC(CCCC(=O)NCP(=O)(O)O)CC3)nc(C(F)(F)F)n2)cc1 [Compound 64, (S)-((4-(1-(6-(2-((4-cyanophenethyl)carbamoyl)pyrrolidin-1-yl)-2-(trifluoromethyl)pyrimidin-4-yl)piperidin-4-yl)butanamido)methyl)-phosphonic acid]
< 100	100 to 999	–	N#Cc1ccc(CCNC(=O)[C@@H]2CCCN2c2cc(N3CCC(CCNC(=O)NCCS(N)(=O)=O)CC3)nc(C(F)(F)F)n2)cc1 [Compound 80, (S)-N-(4-cyanophenethyl)-1-(6-(4-(2-(3-(2-sulfamoylethyl)ureido)-ethyl)piperidin-1-yl)-2-(trifluoromethyl)pyrimidin-4-yl)pyrrolidine-2-carboxamide]
< 100	100 to 999	–	N#Cc1ccc(CCNC(=O)[C@@H]2CCCN2c2cc(N3CCC(COCC(=O)O)CC3)nc(C(F)(F)F)n2)cc1 [Compound 88, (S)-2-((1-(6-(2-((4-cyanophenethyl)carbamoyl)pyrrolidin-1-yl)-2-(trifluoromethyl)pyrimidin-4-yl)piperidin-4-yl)methoxy)acetic acid]
< 100	< 100	–	N#Cc1ccc(CCNC(=O)[C@@H]2CCCN2c2cc(N3CCC(CCCC(=O)NCS(=O)(=O)O)CC3)nc(C(F)(F)F)n2)cc1 [Compound 66, (S)-(4-(1-(6-(2-((4-cyanophenethyl)carbamoyl)pyrrolidin-1-yl)-2-(trifluoromethyl)pyrimidin-4-yl)piperidin-4-yl)butanamido)-methanesulfonic acid]
< 100	< 100	–	N#Cc1ccc(CCNC(=O)[C@@H]2CCCN2c2cc(N3CCC(CCNC(=O)NCCS(=O)(=O)O)CC3)nc(C(F)(F)F)n2)cc1 [Compound 78, (S)-2-(3-(2-(1-(6-(2-((4-cyanophenethyl)carbamoyl)pyrrolidin-1-yl)-2-(trifluoromethyl)pyrimidin-4-yl)piperidin-4-yl)ethyl)ureido)ethanesulfonic acid]
< 100	100 to 999	–	N#Cc1ccc(CCNC(=O)[C@@H]2CCCN2c2cc(N3CCC(CCNC(=O)NCCC(=O)O)CC3)nc(C(F)(F)F)n2)cc1 [Compound 81, (S)-3-(3-(2-(1-(6-(2-((4-cyanophenethyl)carbamoyl)pyrrolidin-1-yl)-2-(trifluoromethyl)pyrimidin-4-yl)piperidin-4-yl)ethyl)ureido)-propanoic acid]

From patent US10654834B2 (Venenum Biodesign, LLC, priority 2016, dated 2020)
